Reference: PubChem BioAssay (NCI)
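All cell lines were grown in 96-well plates and treated with compound for 48 hours. Here, GI50 denotes the concentration required for 50% inhibition of growth. Definition used: TGI = concentration required for complete inhibition of growth.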

Legend:
Test in all cases: NCI anticancer screen, dose series, 48 h
786-0 renal = test system: 786-0 renal
A498 renal = test system: A498 renal
A549 NSCLC = test system: A549 NSCLC
ACHN renal = test system: ACHN renal
BT-549 breast = test system: BT-549 breast
CAKI-1 renal = test system: CAKI-1 renal
CCRF-CEM leukemia = test system: CCRF-CEM leukemia
COLO 205 colon = test system: COLO 205 colon
DU-145 prostate = test system: DU-145 prostate
EKVX NSCLC = test system: EKVX NSCLC
HCC-2998 colon = test system: HCC-2998 colon
HCT-116 colon = test system: HCT-116 colon
HCT-15 colon = test system: HCT-15 colon
HL-60(TB) leukemia = test system: HL-60(TB) leukemia
HOP-62 NSCLC = test system: HOP-62 NSCLC
HOP-92 NSCLC = test system: HOP-92 NSCLC
HS 578T breast = test system: HS 578T breast
HT29 colon = test system: HT29 colon
IGROV1 ovarian = test system: IGROV1 ovarian
K-562 leukemia = test system: K-562 leukemia
KM12 colon = test system: KM12 colon
LOX IMVI melanoma = test system: LOX IMVI melanoma
M14 melanoma = test system: M14 melanoma
MALME-3M melanoma = test system: MALME-3M melanoma
MCF7 breast = test system: MCF7 breast
MDA-MB-231 breast = test system: MDA-MB-231 breast
MDA-MB-435 = test system: MDA-MB-435
MOLT-4 leukemia = test system: MOLT-4 leukemia
NCI-H23 lung = test system: NCI-H23 lung
NCI-H460 lung = test system: NCI-H460 lung
NCI-H522 lung = test system: NCI-H522 lung
NCI/ADR-RES ovarian = test system: NCI/ADR-RES ovarian
OVCAR-3 ovarian = test system: OVCAR-3 ovarian
OVCAR-4 ovarian = test system: OVCAR-4 ovarian
OVCAR-5 ovarian = test system: OVCAR-5 ovarian
OVCAR-8 ovarian = test system: OVCAR-8 ovarian
PC-3 prostate = test system: PC-3 prostate
RPMI-8226 leukemia = test system: RPMI-8226 leukemia
RXF 393 renal = test system: RXF 393 renal
SF-268 CNS = test system: SF-268 CNS
SF-295 CNS = test system: SF-295 CNS
SF-539 CNS = test system: SF-539 CNS
SK-MEL-2 melanoma = test system: SK-MEL-2 melanoma
SK-MEL-28 melanoma = test system: SK-MEL-28 melanoma
SK-MEL-5 melanoma = test system: SK-MEL-5 melanoma
SK-OV-3 ovarian = test system: SK-OV-3 ovarian
SN12C renal = test system: SN12C renal
SNB-19 CNS = test system: SNB-19 CNS
SNB-75 CNS = test system: SNB-75 CNS
SW-620 colon = test system: SW-620 colon
T-47D breast = test system: T-47D breast
TK-10 renal = test system: TK-10 renal
U251 CNS = test system: U251 CNS
UACC-257 melanoma = test system: UACC-257 melanoma
UACC-62 melanoma = test system: UACC-62 melanoma
UO-31 renal = test system: UO-31 renal

SMILES: OC1(c2ccccc2)c2ccccc2N(c2ccccc2)c2ccc(Cl)cc21 (configuration not stated)
- GI50 (786-0 renal): 253 nM
- TGI (786-0 renal): 680 nM
- GI50 (A498 renal): 198 nM
- TGI (A498 renal): 765 nM
- GI50 (A549 NSCLC): 332 nM
- TGI (A549 NSCLC): 1300 nM
- GI50 (ACHN renal): 367 nM
- TGI (ACHN renal): 1370 nM
- GI50 (BT-549 breast): 367 nM
- TGI (BT-549 breast): 1290 nM
- GI50 (CAKI-1 renal): 257 nM
- TGI (CAKI-1 renal): 779 nM
- GI50 (CCRF-CEM leukemia): 382 nM
- TGI (CCRF-CEM leukemia): 13700 nM
- GI50 (COLO 205 colon): 147 nM
- TGI (COLO 205 colon): 338 nM
- GI50 (DU-145 prostate): 412 nM
- TGI (DU-145 prostate): 1390 nM
- GI50 (EKVX NSCLC): 286 nM
- TGI (EKVX NSCLC): 1250 nM
- GI50 (HCC-2998 colon): 258 nM
- TGI (HCC-2998 colon): 795 nM
- GI50 (HCT-116 colon): 234 nM
- TGI (HCT-116 colon): 602 nM
- GI50 (HCT-15 colon): 424 nM
- TGI (HCT-15 colon): 1860 nM
- GI50 (HL-60(TB) leukemia): 251 nM
- TGI (HL-60(TB) leukemia): 739 nM
- GI50 (HOP-62 NSCLC): 328 nM
- TGI (HOP-62 NSCLC): 1230 nM
- GI50 (HOP-92 NSCLC): 214 nM
- TGI (HOP-92 NSCLC): 703 nM
- GI50 (HS 578T breast): 332 nM
- TGI (HS 578T breast): 1810 nM
- GI50 (HT29 colon): 283 nM
- TGI (HT29 colon): 918 nM
- GI50 (IGROV1 ovarian): 341 nM
- TGI (IGROV1 ovarian): 1150 nM
- GI50 (K-562 leukemia): 180 nM
- TGI (K-562 leukemia): 1140 nM
- GI50 (KM12 colon): 296 nM
- TGI (KM12 colon): 845 nM
- GI50 (LOX IMVI melanoma): 179 nM
- TGI (LOX IMVI melanoma): 348 nM
- GI50 (M14 melanoma): 249 nM
- TGI (M14 melanoma): 694 nM
- GI50 (MALME-3M melanoma): 237 nM
- TGI (MALME-3M melanoma): 643 nM
- GI50 (MCF7 breast): 299 nM
- TGI (MCF7 breast): 894 nM
- GI50 (MDA-MB-231 breast): 231 nM
- TGI (MDA-MB-231 breast): 626 nM
- GI50 (MDA-MB-435): 213 nM
- TGI (MDA-MB-435): 631 nM
- GI50 (MOLT-4 leukemia): 294 nM
- TGI (MOLT-4 leukemia): 1250 nM
- GI50 (NCI-H23 lung): 320 nM
- TGI (NCI-H23 lung): 1380 nM
- GI50 (NCI-H460 lung): 246 nM
- TGI (NCI-H460 lung): 568 nM
- GI50 (NCI-H522 lung): 161 nM
- TGI (NCI-H522 lung): 433 nM
- GI50 (NCI/ADR-RES ovarian): 1550 nM
- TGI (NCI/ADR-RES ovarian): 6230 nM
- GI50 (OVCAR-3 ovarian): 147 nM
- TGI (OVCAR-3 ovarian): 304 nM
- GI50 (OVCAR-4 ovarian): 313 nM
- TGI (OVCAR-4 ovarian): 1390 nM
- GI50 (OVCAR-5 ovarian): 457 nM
- TGI (OVCAR-5 ovarian): 1280 nM
- GI50 (OVCAR-8 ovarian): 287 nM
- TGI (OVCAR-8 ovarian): 1250 nM
- GI50 (PC-3 prostate): 303 nM
- TGI (PC-3 prostate): 1230 nM
- GI50 (RPMI-8226 leukemia): 216 nM
- TGI (RPMI-8226 leukemia): 862 nM
- GI50 (RXF 393 renal): 185 nM
- TGI (RXF 393 renal): 472 nM
- GI50 (SF-268 CNS): 311 nM
- TGI (SF-268 CNS): 1140 nM
- GI50 (SF-295 CNS): 575 nM
- TGI (SF-295 CNS): 2270 nM
- GI50 (SF-539 CNS): 236 nM
- TGI (SF-539 CNS): 683 nM
- GI50 (SK-MEL-2 melanoma): 240 nM
- TGI (SK-MEL-2 melanoma): 485 nM
- GI50 (SK-MEL-28 melanoma): 193 nM
- TGI (SK-MEL-28 melanoma): 434 nM
- GI50 (SK-MEL-5 melanoma): 186 nM
- TGI (SK-MEL-5 melanoma): 432 nM
- GI50 (SK-OV-3 ovarian): 608 nM
- TGI (SK-OV-3 ovarian): 1390 nM
- GI50 (SN12C renal): 224 nM
- TGI (SN12C renal): 712 nM
- GI50 (SNB-19 CNS): 378 nM
- TGI (SNB-19 CNS): 1450 nM
- GI50 (SNB-75 CNS): 293 nM
- TGI (SNB-75 CNS): 1110 nM
- GI50 (SW-620 colon): 197 nM
- TGI (SW-620 colon): 491 nM
- GI50 (T-47D breast): 103 nM
- TGI (T-47D breast): 282 nM
- GI50 (TK-10 renal): 300 nM
- TGI (TK-10 renal): 1010 nM
- GI50 (U251 CNS): 201 nM
- TGI (U251 CNS): 536 nM
- GI50 (UACC-257 melanoma): 201 nM
- TGI (UACC-257 melanoma): 720 nM
- GI50 (UACC-62 melanoma): 195 nM
- TGI (UACC-62 melanoma): 452 nM
- GI50 (UO-31 renal): 380 nM
- TGI (UO-31 renal): 1510 nM
